# Measured values reported in US6369081B1, “Muscarinic receptor agonists” (The University of Toledo, priority 1999, dated 2002).
# Legend:
# [1] = biological target: T1, M1 muscarinic receptors expressed in A9 L cells (Homo sapiens, UniProt P11229); conditions: mean ± s.e.m.; for PI metabolism Smax: maximal stimulation from full dose-response curves; for EC50: read-out: PI metabolism EC50, full dose-response curves; for PI metabolism (at 100 μM): percentage stimulation above basal levels at 100 μM relative to the carbachol response (100%), two to five assays
# T1 sequence (P11229 1-460): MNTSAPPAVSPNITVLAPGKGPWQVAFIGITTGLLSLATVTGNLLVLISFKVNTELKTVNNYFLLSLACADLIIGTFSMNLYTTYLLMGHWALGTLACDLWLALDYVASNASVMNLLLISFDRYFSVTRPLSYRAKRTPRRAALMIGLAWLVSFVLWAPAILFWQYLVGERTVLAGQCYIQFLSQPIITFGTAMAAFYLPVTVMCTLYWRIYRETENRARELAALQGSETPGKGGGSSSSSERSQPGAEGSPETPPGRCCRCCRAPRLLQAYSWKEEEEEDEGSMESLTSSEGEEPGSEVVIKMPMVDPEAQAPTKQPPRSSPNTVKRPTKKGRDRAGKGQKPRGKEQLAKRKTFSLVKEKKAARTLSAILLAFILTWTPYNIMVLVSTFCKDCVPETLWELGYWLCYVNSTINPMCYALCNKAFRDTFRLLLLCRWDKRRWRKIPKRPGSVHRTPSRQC
# Source text: (§1) Full dose-response curves were obtained for a few compounds.
# M1 muscarinic receptors = biological target: T2, M1 muscarinic receptors (Homo sapiens, UniProt P11229); conditions: read-out: M1 Receptors Ki; M1 receptors expressed in A9 L cells
# T2 sequence (P11229 1-460): T1 sequence (P11229 1-460)
# Source text: as §1
# M2 receptors = biological target: T3, M2 receptors (Homo sapiens, UniProt P08172); assay: Receptor binding at M2 receptors expressed in A9 L cells (high and low affinity sites); conditions: share of high affinity sites
# T3 construct: expressed in transfected cells; host or cells: A9 L cells
# T3 sequence (P08172 1-466): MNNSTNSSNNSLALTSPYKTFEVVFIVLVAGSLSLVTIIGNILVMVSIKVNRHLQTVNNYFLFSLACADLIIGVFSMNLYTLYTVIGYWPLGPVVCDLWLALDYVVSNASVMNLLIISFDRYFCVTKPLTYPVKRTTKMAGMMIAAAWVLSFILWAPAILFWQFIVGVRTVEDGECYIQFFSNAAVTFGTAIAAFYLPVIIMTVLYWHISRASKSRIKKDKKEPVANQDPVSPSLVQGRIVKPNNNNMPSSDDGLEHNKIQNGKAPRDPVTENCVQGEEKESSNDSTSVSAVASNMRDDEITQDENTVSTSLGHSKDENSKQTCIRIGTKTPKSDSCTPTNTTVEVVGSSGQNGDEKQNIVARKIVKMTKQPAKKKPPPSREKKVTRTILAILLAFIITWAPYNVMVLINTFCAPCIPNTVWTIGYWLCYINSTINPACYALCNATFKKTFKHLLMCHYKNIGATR
M2 Receptors % High affinity (M2 receptors) [%],Compound,PI metabolism Smax [1] [%],EC50 [1] [nM],Ki (M1 muscarinic receptors) [nM],PI metabolism (at 100 μM) [1] [%]
,"CN1CCC=C(c2nsnc2OCCOCCOCCOCCOc2nsnc2C2=CCCN(C)C2)C1 [(CH2)4O3, 2, 2′-bis-{[3-(1-methyl-1,2,5,6-tetrahydropyrid-3-yl)-1,2,5-thiadiazol-4-yloxy]ethyloxy}-diethylether]",250 ± 36,8.5 ± 1.2,0.12 ± 0.057,
,CN1CCC=C(c2nsnc2OCCCCCCOc2nsnc2C2=CCCN(C)C2)C1 [(CH2)6],,,0.61 ± 0.18,18 ± 0.06
,CN1CCC=C(c2nsnc2OCCCCCCCCOc2nsnc2C2=CCCN(C)C2)C1 [(CH2)8],,,0.19 ± 0.04,8.2 ± 1.4
,CN1CCC=C(c2nsnc2OCCCCCCCCCOc2nsnc2C2=CCCN(C)C2)C1 [(CH2)9],140 ± 34,720 ± 370,,27 ± 6.2
,CN1CCC=C(c2nsnc2OCCCCCCCCCCOc2nsnc2C2=CCCN(C)C2)C1 [(CH2)10],,,,76 ± 11
,"CN1CCC=C(c2nsnc2OCCCCCCCCCCCCOc2nsnc2C2=CCCN(C)C2)C1 [(CH2)12, 1, 12-bis-[3-(1-methyl-1,2,5,6-tetrahydropyrid-3-yl)-1,2,5-thiadiazol-4-yloxy]-dodecane]",190 ± 61,340 ± 190,,84 ± 9.9
26 ± 8.5,CCCCCCOc1nsnc1C1=CCCN(C)C1 [Xanomeline],,,,
